Results: PubChem BioAssay (NCI)
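Method: 48-hour compound exposure of cells in 96-well plates, five concentrations, linear interpolation of endpoints. TGI: concentration producing complete growth inhibition.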

Tests used:
Test in all cases: inhibition of tumour cell growth, NCI panel, 48 h
786-0 renal = system: 786-0 renal
A498 renal = system: A498 renal
A549 NSCLC = system: A549 NSCLC
ACHN renal = system: ACHN renal
BT-549 breast = system: BT-549 breast
CAKI-1 renal = system: CAKI-1 renal
CCRF-CEM leukemia = system: CCRF-CEM leukemia
COLO 205 colon = system: COLO 205 colon
DU-145 prostate = system: DU-145 prostate
EKVX NSCLC = system: EKVX NSCLC
HCC-2998 colon = system: HCC-2998 colon
HCT-116 colon = system: HCT-116 colon
HCT-15 colon = system: HCT-15 colon
HL-60(TB) leukemia = system: HL-60(TB) leukemia
HOP-62 NSCLC = system: HOP-62 NSCLC
HOP-92 NSCLC = system: HOP-92 NSCLC
HS 578T breast = system: HS 578T breast
HT29 colon = system: HT29 colon
IGROV1 ovarian = system: IGROV1 ovarian
K-562 leukemia = system: K-562 leukemia
KM12 colon = system: KM12 colon
M14 melanoma = system: M14 melanoma
MALME-3M melanoma = system: MALME-3M melanoma
MCF7 breast = system: MCF7 breast
MDA-MB-231 breast = system: MDA-MB-231 breast
MDA-MB-435 = system: MDA-MB-435
MDA-N = system: MDA-N
MOLT-4 leukemia = system: MOLT-4 leukemia
NCI-H226 lung = system: NCI-H226 lung
NCI-H23 lung = system: NCI-H23 lung
NCI-H460 lung = system: NCI-H460 lung
NCI-H522 lung = system: NCI-H522 lung
NCI/ADR-RES ovarian = system: NCI/ADR-RES ovarian
OVCAR-3 ovarian = system: OVCAR-3 ovarian
OVCAR-4 ovarian = system: OVCAR-4 ovarian
OVCAR-5 ovarian = system: OVCAR-5 ovarian
OVCAR-8 ovarian = system: OVCAR-8 ovarian
PC-3 prostate = system: PC-3 prostate
RPMI-8226 leukemia = system: RPMI-8226 leukemia
RXF 393 renal = system: RXF 393 renal
SF-268 CNS = system: SF-268 CNS
SF-295 CNS = system: SF-295 CNS
SF-539 CNS = system: SF-539 CNS
SK-MEL-2 melanoma = system: SK-MEL-2 melanoma
SK-MEL-28 melanoma = system: SK-MEL-28 melanoma
SK-MEL-5 melanoma = system: SK-MEL-5 melanoma
SK-OV-3 ovarian = system: SK-OV-3 ovarian
SN12C renal = system: SN12C renal
SNB-19 CNS = system: SNB-19 CNS
SNB-75 CNS = system: SNB-75 CNS
SR leukemia = system: SR leukemia
SW-620 colon = system: SW-620 colon
T-47D breast = system: T-47D breast
TK-10 renal = system: TK-10 renal
U251 CNS = system: U251 CNS
UACC-257 melanoma = system: UACC-257 melanoma
UACC-62 melanoma = system: UACC-62 melanoma
UO-31 renal = system: UO-31 renal
LOX IMVI melanoma = system: LOX IMVI melanoma

CCOC(=O)C(C)c1nc2cc(N3CCOCC3)c(F)cc2[nH]c1=O (stereo not given)
TGI (786-0 renal): > 100 µM | TGI (A498 renal): > 100 µM | TGI (A549 NSCLC): > 100 µM | TGI (ACHN renal): > 100 µM | TGI (BT-549 breast): > 100 µM | TGI (CAKI-1 renal): > 100 µM | TGI (CCRF-CEM leukemia): > 100 µM | TGI (COLO 205 colon): > 100 µM | TGI (DU-145 prostate): > 100 µM | TGI (EKVX NSCLC): > 100 µM | TGI (HCC-2998 colon): > 100 µM | TGI (HCT-116 colon): > 100 µM | TGI (HCT-15 colon): > 100 µM | TGI (HL-60(TB) leukemia): > 100 µM | TGI (HOP-62 NSCLC): > 100 µM | TGI (HOP-92 NSCLC): > 100 µM | TGI (HS 578T breast): > 100 µM | TGI (HT29 colon): > 100 µM | TGI (IGROV1 ovarian): > 100 µM | TGI (K-562 leukemia): > 100 µM | TGI (KM12 colon): > 100 µM | TGI (M14 melanoma): > 100 µM | TGI (MALME-3M melanoma): > 100 µM | TGI (MCF7 breast): > 100 µM | TGI (MDA-MB-231 breast): > 100 µM | TGI (MDA-MB-435): > 100 µM | TGI (MDA-N): > 100 µM | TGI (MOLT-4 leukemia): > 100 µM | TGI (NCI-H226 lung): > 100 µM | TGI (NCI-H23 lung): > 100 µM | TGI (NCI-H460 lung): > 100 µM | TGI (NCI-H522 lung): > 100 µM | TGI (NCI/ADR-RES ovarian): > 100 µM | TGI (OVCAR-3 ovarian): > 100 µM | TGI (OVCAR-4 ovarian): > 100 µM | TGI (OVCAR-5 ovarian): > 100 µM | TGI (OVCAR-8 ovarian): > 100 µM | TGI (PC-3 prostate): > 100 µM | TGI (RPMI-8226 leukemia): > 100 µM | TGI (RXF 393 renal): > 100 µM | TGI (SF-268 CNS): > 100 µM | TGI (SF-295 CNS): > 100 µM | TGI (SF-539 CNS): > 100 µM | TGI (SK-MEL-2 melanoma): > 100 µM | TGI (SK-MEL-28 melanoma): > 100 µM | TGI (SK-MEL-5 melanoma): > 100 µM | TGI (SK-OV-3 ovarian): > 100 µM | TGI (SN12C renal): > 100 µM | TGI (SNB-19 CNS): > 100 µM | TGI (SNB-75 CNS): > 100 µM | TGI (SR leukemia): > 100 µM | TGI (SW-620 colon): > 100 µM | TGI (T-47D breast): > 100 µM | TGI (TK-10 renal): > 100 µM | TGI (U251 CNS): > 100 µM | TGI (UACC-257 melanoma): > 100 µM | TGI (UACC-62 melanoma): > 100 µM | TGI (UO-31 renal): > 100 µM

CC1(C)CC[C@]2(C(=O)O)CC[C@]3(C)C(=CC[C@@H]4[C@@]5(C)CC[C@H](OC6OC(C(=O)O)C(O)C(O)C6O)C(C)(C)[C@@H]5CC[C@]43C)[C@@H]2C1 (stereo not given in full)
TGI (786-0 renal): 33.6 µM | TGI (A498 renal): 35.7 µM | TGI (A549 NSCLC): 39.3 µM | TGI (ACHN renal): 29.6 µM | TGI (BT-549 breast): 40.5 µM | TGI (CAKI-1 renal): 33.7 µM | TGI (CCRF-CEM leukemia): 42.8 µM | TGI (COLO 205 colon): 30.8 µM | TGI (DU-145 prostate): 31.4 µM | TGI (EKVX NSCLC): 64.8 µM | TGI (HCC-2998 colon): 38.2 µM | TGI (HCT-116 colon): 30.4 µM | TGI (HCT-15 colon): 30.6 µM | TGI (HL-60(TB) leukemia): 35.5 µM | TGI (HOP-62 NSCLC): 33.9 µM | TGI (HOP-92 NSCLC): 25.9 µM | TGI (HS 578T breast): 44 µM | TGI (HT29 colon): 28.4 µM | TGI (IGROV1 ovarian): 35 µM | TGI (K-562 leukemia): 37.5 µM | TGI (KM12 colon): 34.7 µM | TGI (LOX IMVI melanoma): 35.8 µM | TGI (M14 melanoma): 30.6 µM | TGI (MALME-3M melanoma): 34.2 µM | TGI (MCF7 breast): 40.8 µM | TGI (MDA-MB-231 breast): 33.5 µM | TGI (MDA-MB-435): 38.5 µM | TGI (MDA-N): 33.8 µM | TGI (MOLT-4 leukemia): 41.3 µM | TGI (NCI-H226 lung): 39.5 µM | TGI (NCI-H23 lung): 37.1 µM | TGI (NCI-H460 lung): 37.2 µM | TGI (NCI-H522 lung): 35.3 µM | TGI (NCI/ADR-RES ovarian): 37.2 µM | TGI (OVCAR-3 ovarian): 28 µM | TGI (OVCAR-4 ovarian): 33.9 µM | TGI (OVCAR-5 ovarian): 29.7 µM | TGI (OVCAR-8 ovarian): 44.9 µM | TGI (PC-3 prostate): 33 µM | TGI (RPMI-8226 leukemia): 44.4 µM | TGI (RXF 393 renal): 31.1 µM | TGI (SF-268 CNS): 38.6 µM | TGI (SF-295 CNS): 28.7 µM | TGI (SK-MEL-2 melanoma): 29.8 µM | TGI (SK-MEL-28 melanoma): 39.7 µM | TGI (SK-MEL-5 melanoma): 33.2 µM | TGI (SK-OV-3 ovarian): 41.6 µM | TGI (SN12C renal): 30.8 µM | TGI (SNB-19 CNS): 48.7 µM | TGI (SNB-75 CNS): 35.1 µM | TGI (SR leukemia): 41.1 µM | TGI (SW-620 colon): 31.8 µM | TGI (T-47D breast): 36.3 µM | TGI (U251 CNS): 28 µM | TGI (UACC-257 melanoma): 30.8 µM | TGI (UACC-62 melanoma): 33.4 µM | TGI (UO-31 renal): 36.3 µM
